This note sets out measurements from patent US20210322443A1 (MAPREG, priority 2015, published 2021).

The target in assay [1] is T1, human progesterone receptor(PR) (Homo sapiens, UniProt P06401).
T1 construct: expressed in transfected cells; host or cells: HEK293T
T1 sequence (P06401 1-933): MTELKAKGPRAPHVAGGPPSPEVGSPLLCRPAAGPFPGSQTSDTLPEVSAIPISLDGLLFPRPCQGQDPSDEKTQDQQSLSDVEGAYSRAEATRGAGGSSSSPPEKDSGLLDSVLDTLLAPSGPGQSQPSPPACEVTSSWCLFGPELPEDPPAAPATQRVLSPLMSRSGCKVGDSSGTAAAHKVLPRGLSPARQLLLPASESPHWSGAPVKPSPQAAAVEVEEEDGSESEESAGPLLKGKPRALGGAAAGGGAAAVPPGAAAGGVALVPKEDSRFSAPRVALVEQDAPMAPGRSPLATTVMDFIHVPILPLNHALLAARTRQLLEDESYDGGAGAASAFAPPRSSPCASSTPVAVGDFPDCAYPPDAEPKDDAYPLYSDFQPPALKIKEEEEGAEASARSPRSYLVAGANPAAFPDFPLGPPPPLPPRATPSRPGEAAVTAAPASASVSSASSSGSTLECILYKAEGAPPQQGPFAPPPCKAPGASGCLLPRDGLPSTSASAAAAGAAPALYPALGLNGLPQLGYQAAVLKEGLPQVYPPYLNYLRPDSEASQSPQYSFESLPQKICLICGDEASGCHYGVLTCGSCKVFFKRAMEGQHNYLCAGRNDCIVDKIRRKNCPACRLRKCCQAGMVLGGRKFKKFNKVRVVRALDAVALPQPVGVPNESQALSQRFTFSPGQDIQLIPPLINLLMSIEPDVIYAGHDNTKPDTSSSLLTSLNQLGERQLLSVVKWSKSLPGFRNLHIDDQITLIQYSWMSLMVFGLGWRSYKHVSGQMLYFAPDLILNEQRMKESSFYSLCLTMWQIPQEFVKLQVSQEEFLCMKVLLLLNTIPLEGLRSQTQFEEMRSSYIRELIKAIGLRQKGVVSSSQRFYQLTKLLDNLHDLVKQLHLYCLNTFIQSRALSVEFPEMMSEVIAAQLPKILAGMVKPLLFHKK
The assay can be described thus: Progesterone receptor antagonist transactivation test (progesterone 1 nM) in transfected HEK293T cells. The format is cell-based. The conditions noted are these: with progesterone 1 nM, increasing amounts, FIG. 2. As to the method:
The main experimental setting used is the following: HEK293T cells were transiently transfected, using calcium phosphate precipitation technology, with expression vectors pSG5hPR (which permits expression of human progesterone receptor(PR)), pFC31-luc (contains the luciferase gene under the control of the MMTV promoter, which is in turn activated by binding of a progestin to progesterone receptor) and pcbetagal (which permits expression of betagalactosidase), and cultured during 24 hours with increasing amounts of various compositions: • 1. […] Test of progesterone receptor […] activity: transfected cells were cultured with progesterone (1 nM) and increasing amounts of RU486 (a well-known progesterone receptor antagonist) or 3-methoxy-pregnenolone. • With this setting, a compound with progesterone receptor antagonist activity competes with progesterone for the occupation of progesterone receptor and results in a progressive loss of transactivation activity when the amount of this compound is increased compared to progesterone.

For assay [2], the system named is 80 different CNS neurotransmitters receptors. As to the kind of experiment: Screen for in vitro affinity to 80 CNS receptors. The format is binding. The conditions noted are these: significant = inhibition higher than 50%.
Another assay has as its target Noradrenergic β2 (Homo sapiens, UniProt P07550). As to the kind of experiment: CNS receptor binding assay. To be noted: read-out: % Inhibition of control specific binding.
A further assay has as its target Dopaminergic D5 (Homo sapiens, UniProt P21918). The assay can be described thus: CNS receptor binding assay. To be noted: read-out: % Inhibition of control specific binding.

Each structure is given as a SMILES string.

Chain of Dopaminergic D5 (P21918 whole entry): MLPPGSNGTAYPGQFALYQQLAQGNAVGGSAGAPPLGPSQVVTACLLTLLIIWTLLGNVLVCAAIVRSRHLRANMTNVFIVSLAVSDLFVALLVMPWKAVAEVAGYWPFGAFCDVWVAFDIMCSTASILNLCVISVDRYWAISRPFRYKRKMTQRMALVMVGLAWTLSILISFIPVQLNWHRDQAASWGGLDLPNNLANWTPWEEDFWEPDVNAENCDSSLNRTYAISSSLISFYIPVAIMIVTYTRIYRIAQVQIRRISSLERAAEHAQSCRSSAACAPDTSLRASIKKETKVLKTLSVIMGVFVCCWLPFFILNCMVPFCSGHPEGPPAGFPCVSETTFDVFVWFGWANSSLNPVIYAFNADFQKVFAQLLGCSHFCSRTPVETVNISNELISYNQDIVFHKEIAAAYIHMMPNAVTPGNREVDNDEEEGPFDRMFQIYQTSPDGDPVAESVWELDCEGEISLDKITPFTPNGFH
Chain of Noradrenergic β2 (P07550 whole entry): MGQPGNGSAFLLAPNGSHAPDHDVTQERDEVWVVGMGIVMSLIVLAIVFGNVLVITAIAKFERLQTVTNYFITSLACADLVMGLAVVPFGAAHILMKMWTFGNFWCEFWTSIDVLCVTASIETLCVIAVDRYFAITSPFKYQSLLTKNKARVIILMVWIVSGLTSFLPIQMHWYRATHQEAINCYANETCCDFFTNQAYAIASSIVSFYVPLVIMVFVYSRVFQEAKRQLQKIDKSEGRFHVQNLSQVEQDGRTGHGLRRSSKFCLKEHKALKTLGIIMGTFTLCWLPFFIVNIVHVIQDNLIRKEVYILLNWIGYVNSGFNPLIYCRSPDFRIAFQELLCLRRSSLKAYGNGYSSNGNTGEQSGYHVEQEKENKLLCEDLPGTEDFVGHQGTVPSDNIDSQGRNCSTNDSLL

Take `CO[C@H]1CC[C@@]2(C)C(=CC[C@H]3[C@@H]4CC[C@H](C(C)=O)[C@@]4(C)CC[C@@H]32)C1` [MAP4343, 3β-methoxy-pregna-5-ene-20-one]: the “progesterone receptor antagonist activity” value in assay [1] is “weak progesterone receptor antagonist”. Moreover, the “in vitro affinity for any tested receptor” value in assay [2] is on record as “no significant affinity for any tested receptor”. The figures for the inhibition at 10 µM on Noradrenergic β2 and on Dopaminergic D5 were -4% and -7%, respectively.

One may read the inhibition as the change of the read-out against control, counted positive when it falls.
